Consider 21 molecules from patent publication US20240010642A1, “MODULATORS OF PROGRAMMED DEATH-LIGAND-1” (SOUTHERN RESEARCH INSTITUTE, priority 2021, published 2024).

Structures are written as SMILES. Square brackets hold non-standard residues; d marks the D form. Peptide text beside a SMILES is read from it. * marks the point of attachment. Api = NC1(C(=O)O)CCNCC1; PhAc = O=C(Cc1ccccc1)*; Ac3c = NC1(C(=O)O)CC1; Aib = CC(C)(N)C(=O)O

PDL-1, sequence (Q9NZQ7 19-290): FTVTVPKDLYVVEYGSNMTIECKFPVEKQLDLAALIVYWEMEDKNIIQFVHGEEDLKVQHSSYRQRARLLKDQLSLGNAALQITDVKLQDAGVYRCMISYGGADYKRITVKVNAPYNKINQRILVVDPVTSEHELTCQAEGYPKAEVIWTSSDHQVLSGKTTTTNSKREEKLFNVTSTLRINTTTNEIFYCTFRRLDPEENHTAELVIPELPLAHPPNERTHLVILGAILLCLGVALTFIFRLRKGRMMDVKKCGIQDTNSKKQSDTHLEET

The first test relates to PDL-1 signaling. The experiment in a line: Luciferase assay (Table 1). The class given is cell-based.
As usually defined, the EC50 is the concentration giving half of the maximal effect. High values mean lower potency in that assay, low ones higher potency in that assay. The molecule `CC(C)(NC(=O)c1cc(CN)cc(NC(=O)Cc2ccccc2)c1)C(N)=O` [Compound No. 1, 2-[[3-(Aminomethyl)-5-(2-phenylacetamido)phenyl]formamido]-2-methylpropanamide] came in with an EC50 of 0.39 µM.

The molecule `CC(C)(NC(=O)c1cc(NC(=O)Cc2ccccc2)cc(CN)c1F)C(N)=O` [compound 15] came in with an EC50 of 19.3 µM. Regarding `NCc1cc(NC(=O)Cc2ccc(F)cc2)cc(C(=O)NC2(C(N)=O)CCC2)c1` [compound 10], the half-maximal effective concentration (EC50) stood at 7.06 µM. `CC(C)(NC(=O)c1cc(NC(=O)Cc2ccc(F)cc2)cc(CN)c1F)C(N)=O` [compound 16]: the midpoint of the response, the EC50, lay at 20.6 µM. Same read-out and setting: next, `CC(C)(NC(=O)c1ccc(CN)c(NC(=O)Cc2ccccc2)c1)C(N)=O` [compound 14]: 1.19 µM; `CC(C)(NC(=O)c1cc(NC(=O)Cc2ccccc2)ccc1CN)C(N)=O` [compound 11]: 20 µM; `CC(C)(NC(=O)C1(NC(=O)Cc2ccccc2)CCNCC1)C(N)=O` [Compound No. 22, 2-methyl-2-[[4-(2-phenylacetamido)piperidin-4-yl]formamido]propanamide] (PhAc-[Api]-[Aib]-NH2): 4.22 µM.

Take `NC(=O)C1(NC(=O)C2(NC(=O)Cc3ccccc3)CCNCC2)CC1` [compound 24] (PhAc-[Api]-[Ac3c]-NH2): the EC50 worked out at 7.73 µM. Still for that read-out and setting: the result for `CC(C)(NC(=O)c1ccc(CN)c(NC(=O)Cc2ccc(F)cc2)c1)C(N)=O` [compound 13] reads 20.4 µM.

Take `NCc1cc(NC(=O)Cc2ccccc2)cc(C(=O)NC2(C(N)=O)CCCC2)c1` [compound 7]: the concentration giving a half-maximal response (EC50) was determined as 26.1 µM. `NCc1cc(NC(=O)Cc2ccccc2)cc(C(=O)NC2(C(N)=O)CCC2)c1` [compound 6] showed an EC50 of 27.1 µM. Still for that read-out and setting: the result for `CC(C)(NC(=O)c1cc(NC(=O)Cc2ccc(F)cc2)ccc1CN)C(N)=O` [compound 12] reads 14.3 µM; that for `CN(C)Cc1cc(NC(=O)Cc2ccc(F)cc2)cc(C(=O)NC(C)(C)C(N)=O)c1` [compound 17], 0.21 µM. The same measure, in the same setting: the result for `CC(C)(NC(=O)C1(NC(=O)Cc2ccc(F)cc2)CCNCC1)C(N)=O` [compound 23] reads 9.02 µM. Still for that read-out and setting: next, `CNC(=O)C(C)(C)NC(=O)c1cc(CN(C)C)cc(NC(=O)Cc2ccc(F)cc2)c1` [compound 18]: 21 µM; `NCc1cc(NC(=O)Cc2ccc(F)cc2)cc(C(=O)NCC(N)=O)c1` [compound 9]: 0.07 µM; `NCc1cc(NC(=O)Cc2ccc(F)cc2)cc(C(=O)NC2(C(N)=O)CC2)c1` [compound 4]: 15.7 µM. `NC(=O)C1(NC(=O)C2(NC(=O)Cc3ccc(F)cc3)CCNCC2)CC1` [compound 25] yielded an EC50 of 0.36 µM. On the same count and under the same terms, next, `NCc1cc(NC(=O)Cc2ccccc2)cc(C(=O)NC2(C(N)=O)CC2)c1` [compound 3]: 12.6 µM. Regarding `CNC(=O)C(C)(C)NC(=O)c1cc(CN)cc(NC(=O)Cc2ccc(F)cc2)c1` [compound 19], the concentration giving a half-maximal response (EC50) came to 20.7 µM. Same read-out and setting: the result for `CC(C)(NC(=O)c1cc(CN)cc(NC(=O)Cc2ccc(F)cc2)c1)C(N)=O` [Compound No. 2] reads 0.93 µM.

The next test concerns the target PDL-1 (Homo sapiens (Human), UniProt Q9NZQ7). The experiment in a line: KD binding (Table 1).
Regarding `CC(C)(NC(=O)c1cc(CN)cc(NC(=O)Cc2ccccc2)c1)C(N)=O` [Compound No. 1, 2-[[3-(Aminomethyl)-5-(2-phenylacetamido)phenyl]formamido]-2-methylpropanamide], the KD result is given as “No Binding”. With `CC(C)(NC(=O)c1cc(NC(=O)Cc2ccc(F)cc2)cc(CN)c1F)C(N)=O` [compound 16], the KD result was “No Binding”.

`NCc1cc(NC(=O)Cc2ccccc2)cc(C(=O)NC2(C(N)=O)CCCC2)c1` [compound 7]: the KD result is “No Binding”.

Turning to `CNC(=O)C(C)(C)NC(=O)c1cc(CN(C)C)cc(NC(=O)Cc2ccc(F)cc2)c1` [compound 18], the KD result was “No Binding”.
